Experimental data taken from patent US11634702B2, “Cell signaling pathway activation by local AC electric field” (ARIZONA BOARD OF REGENTS ON BEHALF OF ARIZONA STATE …, priority 2018, dated 2023).

System: EGFR-Ras-ERK signaling pathway in MCF10A cells
Test: ERK activation by AC EF stimulation (ERKTR reporter) in blocker tests
Type: cell-based

Row | Compound | effect on ERK activation under AC EF stimulation (BAPTA AM 3 μM) | effect on ERK activation under AC EF stimulation (Trolox 350 μM)
1 | CC(=O)OCOC(=O)CN(CC(=O)OCOC(C)=O)c1ccccc1OCCOc1ccccc1N(CC(=O)OCOC(C)=O)CC(=O)OCOC(C)=O [BAPTA AM] | neither Ca2+ chelator (BAPTA AM, 3 μM, Life Technologies), nor ROS quencher (Trolox, 350 μM, Sigma-Aldrich) could block the EF activation of ERK | –
2 | Cc1c(C)c2c(c(C)c1O)CCC(C)(C(=O)O)O2 (centres unmarked) [Trolox] | – | neither Ca2+ chelator (BAPTA AM, 3 μM, Life Technologies), nor ROS quencher (Trolox, 350 μM, Sigma-Aldrich) could block the EF activation of ERK
